# Assay results taken from ChEMBL document CHEMBL4033614, “Antineoplastic Agents. 603. Quinstatins: Exceptional Cancer Cell Growth Inhibitors” (2017).
# Square brackets hold non-standard residues; d marks the D form. Peptide text beside a SMILES is read from it. * marks the point of attachment. Dolaproine = CO[C@@H]([C@@H]1CCCN1)[C@@H](C)C(=O)O; Dil = CC[C@H](C)[C@H](NC)[C@@H](CC(=O)O)OC; X1 = C[C@@H](N*)[C@@H](O)c1ccccc1; NMeV = CN[C@H](C(=O)O)C(C)C
# How the values were obtained:
# KM-20L2 = test: Growth inhibition of human KM20L2 cells incubated for 48 hrs by sulforhodamine B assay; conditions: KM-20L2, 48 h
# BXPC-3 [1] = test: Growth inhibition of human BxPC3 cells incubated for 48 hrs by MTT assay; type: functional; conditions: BXPC-3, 48 h
# MCF7 = test: Growth inhibition of human MCF7 cells incubated for 48 hrs by sulforhodamine B assay; conditions: MCF7, 48 h
# DU-145 = test: Growth inhibition of human DU145 cells incubated for 48 hrs by sulforhodamine B assay; conditions: DU-145, 48 h
# SF-268 = test: Growth inhibition of human SF268 cells incubated for 48 hrs by sulforhodamine B assay; conditions: SF-268, 48 h
# NCI-H460 = test: Growth inhibition of human NCI-H460 cells incubated for 48 hrs by sulforhodamine B assay; conditions: NCI-H460, 48 h
# BXPC-3 [2] = test: Growth inhibition of human BxPC3 cells incubated for 48 hrs by sulforhodamine B assay; conditions: BXPC-3, 48 h
Compound,GI50 (KM-20L2),GI50 (BXPC-3 [1]),GI50 (MCF7),GI50 (DU-145),GI50 (SF-268),GI50 (NCI-H460),GI50 (BXPC-3 [2])
CC[C@H](C)[C@@H]([C@@H](CC(=O)N1CCC[C@H]1[C@H](OC)[C@@H](C)C(=O)NCCc1ccc2ncccc2c1)OC)N(C)C(=O)[C@@H](NC(=O)[C@H](C(C)C)N(C)C)C(C)C,0.518 nM,2.66 nM,0.532 nM,0.399 nM,0.399 nM,5.71 nM,–
CC[C@H](C)[C@@H]([C@@H](CC(=O)N1CCC[C@H]1[C@H](OC)[C@@H](C)C(=O)NCCc1cnc2ccccc2c1)OC)N(C)C(=O)[C@@H](NC(=O)[C@H](C(C)C)N(C)C)C(C)C,0.532 nM,27.9 nM,0.305 nM,0.266 nM,0.385 nM,41.2 nM,–
CC[C@H](C)[C@@H]([C@@H](CC(=O)N1CCC[C@H]1[C@H](OC)[C@@H](C)C(=O)N[C@H](C)[C@@H](O)c1ccccc1)OC)N(C)C(=O)[C@@H](NC(=O)[C@H](C(C)C)N(C)C)C(C)C,0.492 nM,> 1.37 nM,0.232 nM,0.424 nM,0.492 nM,0.533 nM,–
CC[C@H](C)[C@@H]([C@@H](CC(=O)N1CCC[C@H]1[C@H](OC)[C@@H](C)C(=O)NCCc1cccc2ncccc12)OC)N(C)C(=O)[C@@H](NC(=O)[C@H](C(C)C)N(C)C)C(C)C,0.305 nM,2.79 nM,0.097 nM,0.172 nM,0.146 nM,6.37 nM,–
CC[C@H](C)[C@@H]([C@@H](CC(=O)N1CCC[C@H]1[C@H](OC)[C@@H](C)C(=O)NCCc1ccc2cccnc2c1)OC)N(C)C(=O)[C@@H](NC(=O)[C@H](C(C)C)N(C)C)C(C)C,0.054 nM,4.12 nM,0.039 nM,0.04 nM,0.032 nM,14.6 nM,–
CC[C@H](C)[C@@H]([C@@H](CC(=O)N1CCC[C@H]1[C@H](OC)[C@@H](C)C(=O)NCCc1ccc2ccccc2n1)OC)N(C)C(=O)[C@@H](NC(=O)[C@H](C(C)C)N(C)C)C(C)C,0.438 nM,12.4 nM,0.412 nM,0.412 nM,0.31 nM,6.77 nM,–
CC[C@H](C)[C@@H]([C@@H](CC(=O)N1CCC[C@H]1[C@H](OC)[C@@H](C)C(=O)NCCc1cccc2cccnc12)OC)N(C)C(=O)[C@@H](NC(=O)[C@H](C(C)C)N(C)C)C(C)C,0.053 nM,–,0.053 nM,0.053 nM,0.03 nM,1.19 nM,0.425 nM
CC[C@H](C)[C@@H]([C@@H](CC(=O)N1CCC[C@H]1[C@H](OC)[C@@H](C)C(=O)NCCc1ccnc2ccccc12)OC)N(C)C(=O)[C@@H](NC(=O)[C@H](C(C)C)N(C)C)C(C)C,0.425 nM,5.84 nM,0.398 nM,0.305 nM,0.252 nM,5.71 nM,–
CC[C@H](C)[C@@H]([C@@H](CC(=O)N1CCC[C@H]1[C@H](OC)[C@@H](C)C(=O)N[C@H](C)[C@@H](O)c1ccccc1)OC)N(C)C(=O)[C@@H](NC(=O)[C@@H](NC)C(C)C)C(C)C (H-[NMeV]V[Dil][Dolaproine]-X1),0.599 nM,> 1.39 nM,0.404 nM,0.418 nM,0.432 nM,0.683 nM,–
